In patent publication US4652638A, “3-O-acyl-4"-deoxydesmycosin derivatives” (Toyo Jozo Kabushiki Kaisha, priority 1983, dated 1987):
In brackets after ≈: the same amount, converted by molar mass. Read-outs that look alike come from different tables or passages of the source.

Key:
Assay in all cases: MIC (minimum inhibitory concentration)
Format in all cases: cell-based
[1] = tested on: Staphylococcus aureus 0119*
[2] = tested on: Streptococcus pyogenes 1022*
[3] = tested on: Escherichia coli NIHJ-JC2; settings: NIHJJC2; Escherichia coli NIHJ-JC2; read-out: MIC
[4] = tested on: Bacillus subtilis ATCC 6633; settings: ATCC6633; Bacillus subtilis ATCC 6633; read-out: MIC
[5] = tested on: Staphylococcus aureus MS353
[6] = tested on: Streptococcus pyogenes N.Y.5
[7] = tested on: Staphylococcus epidermidis sp-al-1; settings: SPAL1; Staphylococcus epidermidis sp-al-1; read-out: MIC
Sarcina lutea ATCC 9341 = settings: Micrococcus luteus, ATCC9341; Sarcina lutea ATCC 9341; read-out: MIC
[8] = tested on: Micrococcus flavus ATCC 10240; settings: ATCC10240; Micrococcus flavus ATCC 10240; read-out: MIC
[9] = tested on: Shigella flexineri type 3a; settings: TYPE3A
[10] = tested on: Streptococcus agalaactiae 1020; settings: Streptococcus agalaactiae 1020; read-out: MIC
[11] = tested on: Staphylococcus aureus 0127*; settings: Staphylococcus aureus
Shigella sonnei E33 = tested on: Shigella sonnei E33
Serratia marcescens = settings: read-out: MIC
[12] = tested on: Staphylococcus aureus ATCC 6538P; settings: ATCC6538P
[13] = tested on: Klebsiella pneumoniae ATCC 10031; settings: ATCC10031; Klebsiella pneumoniae ATCC 10031; read-out: MIC
Escherichia coli B = settings: Escherichia coli B; read-out: MIC
[14] = tested on: Streptococcus faecalis 1501; settings: Enterococcus faecalis; Streptococcus faecalis 1501; read-out: MIC
Salmonella typhosa H901 = settings: Salmonella enterica, TYPHOSA
[15] = tested on: Pseudomonas aeruginosa IAM 1095; settings: IAM1095; Pseudomonas aeruginosa IAM 1095; read-out: MIC
[16] = tested on: Staphylococcus aureus MS353 C36; settings: MS353C36
[17] = tested on: Salmonella enteritidis Gaertner; settings: Salmonella enterica; Salmonella enteritidis Gaertner; read-out: MIC
Proteus vulgaris OX19 = settings: read-out: MIC
[18] = tested on: Staphylococcus aureus MS353 A0*; settings: * clinical isolate, macrolide-resistant bacteria A group

| Structure (SMILES) | MIC [3] | MIC [4] | MIC [5] | MIC [6] | MIC [7] | MIC (Sarcina lutea ATCC 9341) | MIC [8] | MIC [9] | MIC [10] | MIC [11] | MIC (Shigella sonnei E33) | MIC (Serratia marcescens) | MIC [12] | MIC [13] | MIC (Escherichia coli B) | MIC [14] | MIC (Salmonella typhosa H901) | MIC [15] | MIC [16] | MIC [17] | also measured |
| --- | --- | --- | --- | --- | --- | --- | --- | --- | --- | --- | --- | --- | --- | --- | --- | --- | --- | --- | --- | --- | --- |
| CCC1OC(=O)CC(OC(=O)c2ccccc2)C(C)C(OC2OC(C)C(O)C(N(C)C)C2O)C(CC=O)CC(C)C(=O)C=CC(C)=CC1COC1OC(C)CC(OC)C1OC (stereo not drawn) [Example 5, 3-O-benzoyl-4"-deoxydesmycosin] | > 100 µg/mL | 0.1 µg/mL (≈ 0.116 µM) | 0.2 µg/mL (≈ 0.233 µM) | ≤ 0.05 µg/mL | 0.1 µg/mL (≈ 0.116 µM) | ≤ 0.05 µg/mL | ≤ 0.05 µg/mL | 100 µg/mL (≈ 116 µM) | 0.2 µg/mL (≈ 0.233 µM) | > 100 µg/mL | > 100 µg/mL | > 100 µg/mL | 0.2 µg/mL (≈ 0.233 µM) | 25 µg/mL (≈ 29.1 µM) | > 100 µg/mL | 1.6 µg/mL (≈ 1.86 µM) | > 100 µg/mL | > 100 µg/mL | 0.2 µg/mL (≈ 0.233 µM) | > 100 µg/mL | MIC ([1]; Staphylococcus aureus): > 100 µg/mL; MIC ([2]; Streptococcus pyogenes 1022, * clinical isolate, macrolide-resistant bacteria A group, read-out: MIC): 25 µg/mL (≈ 29.1 µM); MIC (Proteus vulgaris OX19): 50 µg/mL (≈ 58.1 µM); MIC [18]: 50 µg/mL (≈ 58.1 µM) |
| CCC(=O)OC1CC(=O)OC(CC)C(COC2OC(C)CC(OC)C2OC)C=C(C)C=CC(=O)C(C)CC(CC=O)C(OC2OC(C)C(O)C(N(C)C)C2O)C1C (stereo not drawn) [Example 2, 3-O-propionyl-4"-deoxydesmycosin] | > 100 µg/mL | 0.1 µg/mL (≈ 0.123 µM) | 0.2 µg/mL (≈ 0.246 µM) | ≤ 0.05 µg/mL | ≤ 0.05 µg/mL | ≤ 0.05 µg/mL | ≤ 0.05 µg/mL | 50 µg/mL (≈ 61.6 µM) | 0.1 µg/mL (≈ 0.123 µM) | 12.5 µg/mL (≈ 15.4 µM) | > 100 µg/mL | > 100 µg/mL | 0.4 µg/mL (≈ 0.493 µM) | 25 µg/mL (≈ 30.8 µM) | 100 µg/mL (≈ 123 µM) | 0.4 µg/mL (≈ 0.493 µM) | > 100 µg/mL | 50 µg/mL (≈ 61.6 µM) | 0.2 µg/mL (≈ 0.246 µM) | > 100 µg/mL | MIC ([1]; Staphylococcus aureus 0119, * clinical isolate, macrolide-resistant bacteria A group, read-out: MIC): 25 µg/mL (≈ 30.8 µM); MIC ([2]; Streptococcus pyogenes): 12.5 µg/mL (≈ 15.4 µM); MIC (Proteus vulgaris OX19): 50 µg/mL (≈ 61.6 µM); MIC [18]: 12.5 µg/mL (≈ 15.4 µM) |
| CCC1OC(=O)CC(OC(=O)c2ccccc2)C(C)C(OC2OC(C)C(O)C(N(C)C)C2O)C(C)CC(C)C(=O)C=CC(C)=CC1COC1OC(C)CC(OC)C1OC (stereo not drawn) [Example 9, 3-O-benzoyl-19-deformyl-4"-deoxydesmycosin] | > 100 µg/mL | 0.2 µg/mL (≈ 0.24 µM) | 0.2 µg/mL (≈ 0.24 µM) | ≤ 0.05 µg/mL | ≤ 0.05 µg/mL | ≤ 0.05 µg/mL | ≤ 0.05 µg/mL | > 100 µg/mL | 0.2 µg/mL (≈ 0.24 µM) | > 100 µg/mL | > 100 µg/mL | > 100 µg/mL | 0.2 µg/mL (≈ 0.24 µM) | 25 µg/mL (≈ 30 µM) | > 100 µg/mL | 1.6 µg/mL (≈ 1.92 µM) | > 100 µg/mL | > 100 µg/mL | 0.1 µg/mL (≈ 0.12 µM) | > 100 µg/mL | MIC ([1]; Staphylococcus aureus): > 100 µg/mL; MIC ([2]; Streptococcus pyogenes): > 100 µg/mL; MIC (Proteus vulgaris OX19): 100 µg/mL (≈ 120 µM); MIC [18]: > 100 µg/mL |
| CCC(=O)OC1CC(=O)OC(CC)C(COC2OC(C)CC(OC)C2OC)C=C(C)C=CC(=O)C(C)CC(C)C(OC2OC(C)C(O)C(N(C)C)C2O)C1C (stereo not drawn) [Example 8, 3-O-propionyl-19-deformyl-4"-deoxydesmycosin] | > 100 µg/mL | 0.1 µg/mL (≈ 0.128 µM) | 0.4 µg/mL (≈ 0.51 µM) | 0.1 µg/mL (≈ 0.128 µM) | 0.1 µg/mL (≈ 0.128 µM) | ≤ 0.05 µg/mL | ≤ 0.05 µg/mL | 100 µg/mL (≈ 128 µM) | 0.4 µg/mL (≈ 0.51 µM) | > 100 µg/mL | > 100 µg/mL | > 100 µg/mL | 0.4 µg/mL (≈ 0.51 µM) | 12.5 µg/mL (≈ 15.9 µM) | 100 µg/mL (≈ 128 µM) | 3.1 µg/mL (≈ 3.95 µM) | > 100 µg/mL | > 100 µg/mL | 0.2 µg/mL (≈ 0.255 µM) | > 100 µg/mL | MIC ([1]; Staphylococcus aureus): > 100 µg/mL; MIC ([2]; Streptococcus pyogenes): > 100 µg/mL; MIC (Proteus vulgaris OX19): 100 µg/mL (≈ 128 µM); MIC [18]: > 100 µg/mL |
